# Values of other authors as cited in US20180168955A1, “IODINE-CONTAINING ORAL CARE COMPOSITIONS” (priority 2016, published 2018).
smiles,measurement,setting,value
II [iodine],volume of alcohol in which one gram of iodine dissolves,solvent alcohol,12.5 mL
same,volume of water in which one gram of iodine dissolves,solvent water,2950 mL
